# Reference: patent publication US6355647B1, “3-substituted 3,4,5,7-tetrahedropyrrolo[3′,4′:4,5]thieno-[2,3-d]pyrimidine derivatives, their preparation and use” (Abbott Laboratories, priority 1997, dated 2002)
# How the values were obtained:
# [1] = tested on: serotonin release in the cortex; conditions: after systemic administration; cited from earlier work
# [2] = tested on: serotonin release in the dorsal raphe nucleus; conditions: rat; combined with paroxetine; cited from earlier work
SMILES,melting point [°C],serotonin release in the cortex [1],effect of paroxetine on serotonin release in the dorsal raphe nucleus [2]
CCOC(=O)N1Cc2sc3ncn(CCN4CCN(c5ncccn5)CC4)c(=O)c3c2C1,166,,
CCOC(=O)N1Cc2sc3ncn(CCN4CCN(c5cccc6c5CCC6)CC4)c(=O)c3c2C1,149,,
COc1ccc(NC(=O)c2ccc(-c3ccc(-c4noc(C)n4)cc3C)cc2)cc1N1CCN(C)CC1 [GR 127 935],,reduces serotonin release,potentiated

# Second part, led by results:
melting point [°C],SMILES,serotonin release in the cortex [1],effect of paroxetine on serotonin release in the dorsal raphe nucleus [2]
152,CCOC(=O)N1Cc2sc3ncn(CCN4CCN(c5ccccc5C)CC4)c(=O)c3c2C1,,
172,CCOC(=O)N1Cc2sc3ncn(CCN4CCN(c5ccccc5Cl)CC4)c(=O)c3c2C1,,
190,CCOC(=O)N1Cc2sc3ncn(CCCN4CCN(c5ccccc5C#N)CC4)c(=O)c3c2C1,,
190 to 192,CCOC(=O)N1Cc2sc3ncn(CCN4CCN(c5cccc6ccccc56)CC4)c(=O)c3c2C1,,
